# Measurements as given in patent US10328084B2, “Pyrrolobenzodiazepines and targeted conjugates” (priority 2011, dated 2019).
# Assays:
# Assay type in all cases: cell-based
# [1] = system: 786-O; assay: in vitro cytotoxic activity, resazurin reduction assay, 786-O; conditions: Homo sapiens, 786-0, 48 h, read-out: IC50 in pM following 48 hours treatment, 786-O
# Method: (§1) The in vitro cytotoxic activity of the selected antibody drug conjugate was assessed using a resazurin (Sigma, St. Louis, Mo., USA) reduction assay (reference: Doronina et al., Nature Biotechnology, 2003, 21, 778-784). The antibody drug conjugate was prepared as described above.
# (§2) For the 96-hour assay, cells cultured in log-phase growth were seeded for 24 h in 96-well plates containing 150 μL RPMI 1640 supplemented with 20% FBS. Serial dilutions of ADC in cell culture media were prepared at 4× working concentration; 50 μL of each dilution was added to the 96-well plates. Following addition of ADC, the cells were incubated with test articles for 4 days at 37° C. Resazurin was then added to each well to achieve a 50 μM final concentration, and the plates were incubated for an additional 4 hours at 37° C. The plates were then read for the extent of dye reduction on a Fusion HT plate reader (Packard Instruments, Meridien, Conn., USA) with excitation and emission wavelengths of 530 and 590 nm, respectively. The IC50 value, determined in triplicate, is defined here as the concentration that results in a 50% reduction in cell growth relative to untreated controls.
# (§3) Referring to the table below, the in vitro cytotoxicity of the ADC using the 96 hour assay is shown. […]
# [2] = system: Caki-1; assay: in vitro cytotoxic activity, resazurin reduction assay, Caki-1; conditions: Homo sapiens, CAKI-1, 48 h, read-out: IC50 in pM following 48 hours treatment, Caki-1
# Method: as §1, §2, §3
# [3] = system: HL60; assay: in vitro cytotoxic activity, HL60; conditions: Homo sapiens, HL-60; HL60, 48 hours treatment, free PBD dimer; read-out: IC50 in pM following 48 hours treatment, HL60
# Method: as §1
# as §2, with “For the 96-hour assay, cells cultured in log-phase growth were seeded for 24 h in 96-well plates containing 150 μL RPMI 1640 supplemented with 20% FBS.” left out, “Following addition of ADC, the cells were incubated with test articles for 4 days at 37° C.” left out
# [4] = system: HEL9217; assay: in vitro cytotoxic activity, HEL9217; conditions: Homo sapiens, HEL 92.1.7; HEL9217, 48 hours treatment, free PBD dimer; read-out: IC50 in pM following 48 hours treatment, HEL9217
# Method: as §1
# as §2, with “For the 96-hour assay, cells cultured in log-phase growth were seeded for 24 h in 96-well plates containing 150 μL RPMI 1640 supplemented with 20% FBS.” left out, “Following addition of ADC, the cells were incubated with test articles for 4 days at 37° C.” left out
SMILES,IC50 [1] [pM],IC50 [2] [pM],IC50 [3] [pM],IC50 [4] [pM]
"COc1cc2c(cc1OCCCCCOc1cc3c(cc1OC)C(=O)N1C=C(c4ccc(OCCCN(C)C)cc4)C[C@H]1C=N3)N=C[C@@H]1CC(c3ccc(N)cc3)=CN1C2=O [compound 17, (S)-2-(4-aminophenyl)-8-((5-(((S)-2-(4-(3-(dimethylamino)propoxy)phenyl)-7-methoxy-5-oxo-5,11a-dihydro-1H-benzo[e]pyrrolo[1,2-a][1,4]diazepin-8-yl)oxy)pentyl)oxy)-7-methoxy-1H-benzo[e]pyrrolo[1,2-a][1,4]diazepin-5(11 aH)-one]",7,2,3,2
"COCCOCCOCCOCCOc1ccc(C2=CN3C(=O)c4cc(OC)c(OCCCCCOc5cc6c(cc5OC)C(=O)N5C=C(c7ccc(N)cc7)C[C@@H]5C=N6)cc4N=C[C@H]3C2)cc1 [compound 23, (R)-2-(4-(2,5,8,11-tetraoxatridecan-13-yloxy)phenyl)-8-((5-(((R)-2-(4-aminophenyl)-7-methoxy-5-oxo-5,11a-dihydro-1H-benzo[e]pyrrolo[1,2-a][1,4]diazepin-8-yl)oxy)pentyl)oxy)-7-methoxy-1H-benzo[e]pyrrolo[1,2-a][1,4]diazepin-5(11aH)-one]",100,100,40,100
